Measurements published in paper PMC8026479 (Cancer Chemotherapy and Pharmacology, 2021).
Like-named read-outs stand apart in the source and are kept apart here.

Tests used:
[1] = tested on: transition rate constant from G1 to cycling for HSPCs; experiment: Semi-mechanistic multi-compartment PK/PD model of hematopoiesis; set-up: species or system mouse, rat, and dog
Text: Owing to the invasive nature of the PD marker collection (i.e. bone marrow aspiration), a semi-mechanistic PK/PD model based on animal PK/PD data and human PK data was developed to guide the selection of an optimal dose level for bone marrow aspiration in humans during dose escalation in the Phase I first-in-human study. The model was constructed using PK data from four species (mouse, rat, dog, and human) and PD data from three species (mouse, rat, and dog; Online Resources 1 and 2).
The PK/multi-compartment PD model was based on a myelosuppression model previously published by Friberg et al., with modifications. […] In the model used in the current study, stem cells and progenitor cells were separated into two compartments, with experimental data measured for each compartment. […] Another important deviation from the Friberg model was the mechanism postulated for the homeostasis of the […] (PMNs). We postulated that the feedback mechanism has a set point target and that deviations from that target would accelerate (in the case of too few PMNs) or decelerate (in the case of too many PMNs) the transition of G1-phase cells to S-phase cells in the stem cell population.
The model was constructed in two stages. First, preclinical PK data (e.g. doses, routes, and schedule of administration, observed concentrations) were compiled and modeled by allometric scaling. A sequential PK/PD modeling approach (population PK parameters and data approach) was then employed in which a semi-mechanistic PD model with various physiological compartments was created, and specific assumptions entered (Online Resource 3). Traditional forward addition/backward elimination was used for PK modeling. […] Many parameters in this complex model could not be estimated and were fixed either to the literature values or values selected on the basis of discussions with domain experts and sensitivity analysis. In preclinical animal models, the PD analysis modeled bone marrow cells positive for 5′-ethynyl-2′-deoxyuridine (EdU) and peripheral neutrophil counts simultaneously. […]

[2] = Study G1T28-1-01 plasma PK, first-in-human single dose; type: in vivo; conditions: for Vd: read-out: Vz
[3] = tested on: murine HSCs / total bone marrow cycling cells; set-up: method as in PMID 28446688; conditions: mouse, at concentrations giving maximum decrease in total bone marrow cycling cells; cited from earlier work
[4] = tested on: total bone marrow cycling cells; set-up: method as in doi:10.1200/jco.2015.33.15_suppl.2529; conditions: dogs; cited from earlier work
[5] = both sexes, human, plasma, iv, 6 mg/m2, healthy volunteers, single 30-min IV 6 mg/m2 (n = 3), mean
[6] = both sexes, human, plasma, iv, 12 mg/m2, healthy volunteers, single 30-min IV 12 mg/m2 (n = 3), mean
[7] = both sexes, human, plasma, iv, 24 mg/m2, healthy volunteers, single 30-min IV 24 mg/m2 (n = 3), mean
[8] = both sexes, human, plasma, iv, 49 mg/m2, healthy volunteers, single 30-min IV 49 mg/m2 (n = 3), mean
[9] = both sexes, human, plasma, iv, 96 mg/m2, healthy volunteers, single 30-min IV 96 mg/m2 (n = 6), mean
[10] = both sexes, human, plasma, healthy volunteers, single 30-min IV 6 mg/m2 (n = 3), mean
[11] = both sexes, human, plasma, healthy volunteers, single 30-min IV 96 mg/m2 (n = 6), mean
[12] = both, human, plasma, intravenous, […]2, healthy volunteers, BED cohort […]2 (n = 12), mean
[13] = both, human, plasma, intravenous, […]2, healthy volunteers, both […]2 cohorts (n = 18), mean
[14] = both, human, plasma, iv, […]2, healthy volunteers, single 30-min IV […]2 SAD cohort (n = 6), mean
[15] = healthy volunteers, single 30-min IV 6 mg/m2 (n = 3), mean
[16] = healthy volunteers, single 30-min IV 96 mg/m2 (n = 6), mean

- EC50, final PD model (concentration of G1T28 with 50% max effect) ([1]; plasma concentration, Emax effect on G1-to-cycling transition of HSPCs, model estimate): 5.9 ng/mL
- EC90 (therapeutically active) ([1]; predicted from model EC50): approximately 50 ng/mL
- clearance [2, 5]: 3130 mL/min
- Vd [2, 5]: 1460 L
- clearance [2, 6]: 2700 mL/min
- Vd [2, 6]: 1770 L
- clearance [2, 7]: 2930 mL/min
- Vd [2, 7]: 2310 L
- clearance [2, 8]: 2930 mL/min
- Vd [2, 8]: 3430 L
- clearance [2, 9]: 2370 mL/min
- Vd [2, 9]: 3050 L
- Tmax [2, 10]: 0.25 h
- half-life [2, 10]: 5.32 h
- half-life ([2]; both sexes, human, plasma, healthy volunteers, single 30-min IV 12 mg/m2 (n = 3), mean): 7.62 h
- AUC(0-inf) ([2]; both sexes, human, plasma, healthy volunteers, single 30-min IV 12 mg/m2 (n = 3), mean, read-out: AUC0-inf): 143 ng·h/mL
- half-life ([2]; both sexes, human, plasma, healthy volunteers, single 30-min IV 24 mg/m2 (n = 3), mean): 9.28 h
- AUC(0-inf) ([2]; both sexes, human, plasma, healthy volunteers, single 30-min IV 24 mg/m2 (n = 3), mean, read-out: AUC0-inf): 279 ng·h/mL
- Cmax ([2]; both sexes, human, plasma, healthy volunteers, single 30-min IV 24 mg/m2 (n = 3), mean, read-out: Cmax): 255 ng/mL
- half-life ([2]; both sexes, human, plasma, healthy volunteers, single 30-min IV 49 mg/m2 (n = 3), mean): 12.9 h
- Tmax [2, 11]: 0.37 h
- half-life [2, 11]: 14.7 h
- Tmax ([2]; both, human, plasma, intravenous, […]2): 0.47 h
- clearance [2, 12]: 2100 mL/min
- Vd [2, 12]: 2640 L
- clearance [2, 13]: 2050 mL/min
- Vd [2, 13]: 2580 L
- half-life ([2]; both, human, plasma, iv, […]2): 14.5 h
- clearance [2, 14]: 1950 mL/min
- Vd [2, 14]: 2460 L
- AUC(0-inf) [2, 15]: 66.6 ng·h/mL
- Cmax [2, 15]: 50.4 ng/mL
- Cmax ([2]; healthy volunteers, single 30-min IV 12 mg/m2 (n = 3), mean): 119 ng/mL
- AUC(0-inf) ([2]; healthy volunteers, single 30-min IV 49 mg/m2 (n = 3), mean): 518 ng·h/mL
- AUC(0-inf) [2, 16]: 1341 ng·h/mL
- Cmax [2, 16]: 910 ng/mL
Structure (SMILES): CN1CCN(c2ccc(Nc3ncc4cc5n(c4n3)C3(CCCCC3)CNC5=O)nc2)CC1 [trilaciclib]
- HSPCs arrested in the G1 phase [3]: ~100%
- maximum decrease from baseline in total bone marrow cycling cells [4]: ~ 50%
